Measurements published in US20100093722A1, “HETEROARYL AND PHENYL SUBSTITUTED THIENO[2,3-d]PYRIMIDINES AND THEIR USE AS ADENOSINE A2a RECEPTOR ANTAGONISTS” (priority 2008, published 2010).

Legend:
[1] = molecular target: T1, human adenosine A2a receptor (Homo sapiens, UniProt P29274); assay: Adenosine A2a Receptor Functional Assay (A2AGAL2); type: cell-based; details: CHO-K1 cells overexpressing human A2a, cAMP inducible beta-galactosidase reporter, 15 nM NECA agonist challenge
T1 construct: expressed in transfected cells; host or cells: CHO-K1
Method: Adenosine A2a Receptor Functional Assay (A2AGAL2)
To initiate the functional assay, cryopreserved CHO-K1 cells overexpressing the human adenosine A2a receptor and containing a cAMP inducible beta-galactosidase reporter gene were thawed, centrifuged, DMSO containing media removed, and then seeded with fresh culture media into clear 384-well tissue culture treated plates (BD #353961) at a concentration of 10K cells/well. Prior to assay, these plates were cultured for two days at 37° C., 5% CO2, 90% Rh. On the day of the functional assay, culture media was removed and replaced with 45 uL assay medium (Hams/F-12 Modified (Mediatech #10-080CV) supplemented w/0.1% BSA). Test compounds were diluted and 11 point curves created at a 1000× concentration in 100% DMSO. Immediately after addition of assay media to the cell plates, 50 nL of the appropriate test compound antagonist or agonist control curves were added to cell plates using a Cartesian Hummingbird. Compound curves were allowed to incubate at room temperature on cell plates for approximately 15 minutes before addition of a 15 nM NECA (Sigma E2387) agonist challenge (5 uL volume). A control curve of NECA, a DMSO/Media control, and a single dose of Forskolin (Sigma F3917) were also included on each plate. After additions, cell plates were allowed to incubate at 37° C., 5% CO2, 90% Rh for 5.5-6 hours. After incubation, media was removed, and cell plates were washed 1× 50 uL with DPBS w/o Ca & Mg (Mediatech 21-031-CV). Into dry wells, 20 uL of 1× Reporter Lysis Buffer (Promega E3971 (diluted in dH2O from 5× stock)) was added to each well and plates frozen at −20° C. overnight. For β-galactosidase enzyme calorimetric assay, plates were thawed out at room temperature and 20 μL 2× assay buffer (Promega) was added to each well. Color was allowed to develop at 37° C., 5% CO2, 90% Rh for 1-1.5 h or until reasonable signal appeared. The calorimetric reaction was stopped with the addition of 60 μL/well 1M sodium carbonate. Plates were counted at 405 nm on a SpectraMax Microplate Reader (Molecular Devices). Data was analyzed in Microsoft Excel and IC/EC50 curves were fit using a standardized macro.

[2] = molecular target: T2, human adenosine A1 receptor (Homo sapiens, UniProt P30542); assay: Adenosine A1 Receptor Functional Assay (A1GAL2); type: cell-based; details: CHO-K1 cells overexpressing human A1, cAMP inducible beta-galactosidase reporter, 4 nM r-PIA/1 uM Forskolin challenge
T2 construct: expressed in transfected cells; host or cells: CHO-K1
T2 sequence (P30542 1-326): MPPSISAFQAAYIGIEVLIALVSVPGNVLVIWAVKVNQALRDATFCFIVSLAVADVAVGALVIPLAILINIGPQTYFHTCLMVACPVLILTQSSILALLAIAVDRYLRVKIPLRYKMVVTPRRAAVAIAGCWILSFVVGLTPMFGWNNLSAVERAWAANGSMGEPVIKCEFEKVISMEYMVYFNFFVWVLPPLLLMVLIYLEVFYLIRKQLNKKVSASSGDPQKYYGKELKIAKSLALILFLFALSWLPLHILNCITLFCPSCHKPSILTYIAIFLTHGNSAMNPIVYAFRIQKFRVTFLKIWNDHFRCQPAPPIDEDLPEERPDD
Method: Adenosine A1 Receptor Functional Assay (A1GAL2)
To initiate the functional assay, cryopreserved CHO-K1 cells overexpressing the human adenosine A1 receptor and containing a cAMP inducible beta-galactosidase reporter gene were thawed, centrifuged, DMSO containing media removed, and then seeded with fresh culture media into clear 384-well tissue culture treated plates (BD #353961) at a concentration of 10K cells/well. Prior to assay, these plates were cultured for two days at 37+ C., 5% CO2, 90% Rh. On the day of the functional assay, culture media was removed and replaced with 45 uL assay medium (Hams/F-12 Modified (Mediatech #10-080CV) supplemented w/0.1% BSA). Test compounds were diluted and 11 point curves created at a 1000× concentration in 100% DMSO. Immediately after addition of assay media to the cell plates, 50 nL of the appropriate test compound antagonist or agonist control curves were added to cell plates using a Cartesian Hummingbird. Compound curves were allowed to incubate at room temperature on cell plates for approximately 15 minutes before addition of a 4 nM r-PIA (Sigma P4532)/1 uM Forskolin (Sigma F3917) agonist challenge (5 uL volume). A control curve of r-PIA in 1 uM Forskolin, a DMSO/Media control, and a single dose of Forskolin were also included on each plate. After additions, cell plates were allowed to incubate at 37° C., 5% CO2, 90% Rh for 5.5-6 hours. After incubation, media was removed, and cell plates were washed 1× 50 uL with DPBS w/o Ca & Mg (Mediatech 21-031-CV). Into dry wells, 20 uL of 1× Reporter Lysis Buffer (Promega E3971 (diluted in dH2O from 5× stock)) was added to each well and plates frozen at −20° C. overnight. For β-galactosidase enzyme calorimetric assay, plates were thawed out at room temperature and 20 μL 2× assay buffer (Promega) was added to each well. Color was allowed to develop at 37° C., 5% CO2, 90% Rh for 1-1.5 h or until reasonable signal appeared. The calorimetric reaction was stopped with the addition of 60 μL/well 1M sodium carbonate. Plates were counted at 405 nm on a SpectraMax Microplate Reader (Molecular Devices). Data was analyzed in Microsoft Excel and IC/EC50 curves were fit using a standardized macro.

[3] = molecular target: T3, human A2a adenosine receptor (Homo sapiens, UniProt P29274); assay: Ligand Binding Assay for Adenosine A2a Receptor (A2A-B); details: plasma membrane of HEK293 cells containing human A2a receptor, radioligand [3H]CGS21680
T3 construct: purchased PerkinElmer RB-HA2a; host or cells: HEK293 plasma membrane
Method: Ligand Binding Assay for Adenosine A2a Receptor
Ligand binding assay of adenosine A2a receptor was performed using plasma membrane of HEK293 cells containing human A2a adenosine receptor (PerkinElmer, RB-HA2a) and radioligand [^3H]CGS21680 (PerkinElmer, NET1021). Assay was set up in 96-well polypropylene plate in total volume of 200 μL by sequentially adding 20 μL 1:20 diluted membrane, 130 μL assay buffer (50 mM Tris.HCl, pH 7.4 10 mM MgCl2, 1 mM EDTA) containing [^3H] CGS21680, 50 μL diluted compound (4×) or vehicle control in assay buffer. Nonspecific binding was determined by […] NECA. Reaction was carried out at room temperature for 2 hours before filtering through 96-well GF/C filter plate pre-soaked in 50 mM Tris.HCl, pH 7.4 containing 0.3% polyethylenimine. Plates were then washed 5 times with cold 50 mM Tris.HCl, pH 7.4, dried and sealed at the bottom. Microscintillation fluid 30 μL was added to each well and the top sealed. Plates were counted on Packard Topcount for [^3H]. Data was analyzed in Microsoft Excel and GraphPad Prism programs. (Varani, K.; Gessi, S.; Dalpiaz, A.; Borea, P. A. British Journal of Pharmacology, 1996, 117, 1693)

T1 sequence (P29274 whole entry): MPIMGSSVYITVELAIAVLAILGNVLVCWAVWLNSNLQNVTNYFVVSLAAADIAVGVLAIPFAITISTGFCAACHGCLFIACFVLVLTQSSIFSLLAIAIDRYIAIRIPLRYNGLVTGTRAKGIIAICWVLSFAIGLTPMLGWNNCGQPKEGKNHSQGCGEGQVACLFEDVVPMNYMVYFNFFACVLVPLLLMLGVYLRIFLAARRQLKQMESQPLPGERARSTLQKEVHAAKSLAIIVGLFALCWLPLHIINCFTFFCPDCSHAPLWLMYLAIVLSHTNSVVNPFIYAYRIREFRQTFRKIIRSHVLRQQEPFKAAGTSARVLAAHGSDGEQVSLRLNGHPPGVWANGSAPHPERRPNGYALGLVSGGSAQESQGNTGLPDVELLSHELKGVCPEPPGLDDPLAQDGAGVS
T3 sequence (P29274 whole entry): as above

Row | SMILES | Ki [1] | Ki [2] | Ki [3]
1 | N#Cc1cccc(-c2nc(N)c3cc(Cc4cccnc4Cl)sc3n2)c1 [Example 35, 3-[4-Amino-6-(2-chloro-pyridin-3-ylmethyl)-thieno[2,3-d]pyrimidin-2-yl]-benzonitrile] | 11.4 nM | 713 nM | 28.4 nM
2 | N#Cc1cccc(-c2nc(N)c3cc(Cc4cccnc4)sc3n2)c1 [Example 32, 3-(4-Amino-6-pyridin-3-ylmethyl-thieno[2,3-d]pyrimidin-2-yl)-benzonitrile] | 17.6 nM | 408 nM | 
3 | N#Cc1cccc(-c2nc(N)c3cc(Cc4cccnc4N4CCOCC4)sc3n2)c1 [Example 27, 3-[4-Amino-6-(2-morpholin-4-yl-pyridin-3-ylmethyl)-thieno[2,3-d]pyrimidin-2-yl]-benzonitrile] | 39.8 nM | 592 nM | 
4 | COc1ccc(C(O)c2cc3c(N)nc(-c4cccc(C#N)c4)nc3s2)cn1 (centres unmarked) [Example 36, 3-{4-Amino-6-[hydroxy-(6-methoxy-pyridin-3-yl)-methyl]-thieno[2,3-d]pyrimidin-2-yl}-benzonitrile] | 156 nM | 726 nM | 
5 | N#Cc1cccc(-c2nc(N)c3cc(C(O)c4ccc(N5CCCCC5)nc4)sc3n2)c1 (centres unmarked) [Example 12, 3-{4-Amino-6-[hydroxy-(3,4,5,6-tetrahydro-2H-[1,2′]bipyridinyl-5′-yl)-methyl]-thieno[2,3-d]pyrimidin-2-yl}-benzonitrile] | 201 nM | 1280 nM | 
6 | N#Cc1cccc(-c2nc(N)c3cc(C(O)c4ccncc4)sc3n2)c1 (centres unmarked) [Example 28, 3-[4-Amino-6-(hydroxy-pyridin-4-yl-methyl)-thieno[2,3-d]pyrimidin-2-yl]-benzonitrile] | 87.5 nM | 787 nM | 
7 | COc1ccc(Cc2cc3c(N)nc(-c4cccc(C#N)c4)nc3s2)cn1 [Example 37, 3-[4-Amino-6-(6-methoxy-pyridin-3-ylmethyl)-thieno[2,3-d]pyrimidin-2-yl]-benzonitrile] | 64.3 nM | 507 nM | 
8 | Nc1nc(-c2cccc(F)c2)nc2sc(Cc3ccc(Cl)nc3)cc12 [Example 40, 6-(6-Chloro-pyridin-3-ylmethyl)-2-(3-fluoro-phenyl)-thieno[2,3-d]pyrimidin-4-ylamine] | 442 nM | 443 nM | 
9 | N#Cc1cccc(-c2nc(N)c3cc(C(O)c4cccnc4)sc3n2)c1 (centres unmarked) [Example 31, 3-[4-Amino-6-(hydroxy-pyridin-3-yl-methyl)-thieno[2,3-d]pyrimidin-2-yl]-benzonitrile] | 16 nM | 285 nM | 
10 | COc1cccc(C(O)c2cc3c(N)nc(-c4cccc(C#N)c4)nc3s2)n1 (centres unmarked) [Example 11, 3-{4-Amino-6-[hydroxy-(6-methoxy-pyridin-2-yl)-methyl]-thieno[2,3-d]pyrimidin-2-yl}-benzonitrile] | 29.3 nM | 153 nM | 
11 | N#Cc1cccc(-c2nc(N)c3cc(C(O)c4cccnc4F)sc3n2)c1 (centres unmarked) [Example 29, 3-{4-Amino-6-[(2-fluoro-pyridin-3-yl)-hydroxy-methyl]-thieno[2,3-d]pyrimidin-2-yl}-benzonitrile] | 5.09 nM | 145 nM | 
12 | N#Cc1cccc(-c2nc(N)c3cc(CCc4ccccn4)sc3n2)c1 [Example 2, 3-[4-Amino-6-(2-pyridin-2-yl-ethyl)-thieno[2,3-d]pyrimidin-2-yl]-benzonitrile] | 79.2 nM | 468 nM | 
13 | N#Cc1cccc(-c2nc(N)c3cc(Cc4ccncc4Cl)sc3n2)c1 [Example 22, 3-[4-Amino-6-(3-chloro-pyridin-4-ylmethyl)-thieno[2,3-d]pyrimidin-2-yl]-benzonitrile] | 25.3 nM | > 610 nM | 
14 | N#Cc1cccc(-c2nc(N)c3cc(C(O)c4cccnc4N4CCOCC4)sc3n2)c1 (centres unmarked) [Example 13, 3-{4-Amino-6-[hydroxy-(2-morpholin-4-yl-pyridin-3-yl)-methyl]-thieno[2,3-d]pyrimidin-2-yl}-benzonitrile] | 171 nM | 445 nM | 
15 | COc1ncccc1C(=O)c1cc2c(N)nc(-c3cccc(C#N)c3)nc2s1 [Example 39, 3-[4-Amino-6-(2-methoxy-pyridine-3-carbonyl)-thieno[2,3-d]pyrimidin-2-yl]-benzonitrile] | 53 nM | 289 nM | 
16 | N#Cc1cccc(-c2nc(N)c3cc(C(O)c4cccnc4N4CCCCC4)sc3n2)c1 (centres unmarked) [Example 17, 3-{4-Amino-6-[hydroxy-(3,4,5,6-tetrahydro-2H-[1,2′]bipyridinyl-3′-yl)-methyl]-thieno[2,3-d]pyrimidin-2-yl}-benzonitrile] | 32 nM | 277 nM | 
17 | Nc1nc(-c2ccccc2)nc2sc(Cc3ccc(Cl)nc3)cc12 [Example 3, 6-(6-Chloro-pyridin-3-ylmethyl)-2-phenyl-thieno[2,3-d]pyrimidin-4-ylamine] | 47.2 nM | 438 nM | 
18 | N#Cc1cccc(-c2nc(N)c3cc(Cc4cccnc4N4CCCCC4)sc3n2)c1 [Example 20, 3-[4-Amino-6-(3,4,5,6-tetrahydro-2H-[1,2′]bipyridinyl-3′-ylmethyl)-thieno[2,3-d]pyrimidin-2-yl]-benzonitrile] | 45.3 nM | 292 nM | 
19 | N#Cc1cccc(-c2nc(N)c3cc(C(O)c4cccnc4N4CCCC4)sc3n2)c1 (centres unmarked) [Example 14, 3-{4-Amino-6-[hydroxy-(2-pyrrolidin-1-yl-pyridin-3-yl)-methyl]-thieno[2,3-d]pyrimidin-2-yl}-benzonitrile] | 1040 nM | 1290 nM | 
20 | Nc1nc(-c2ccccc2)nc2sc(Cc3ccccn3)cc12 [Example 16, 2-Phenyl-6-pyridin-2-ylmethyl-thieno[2,3-d]pyrimidin-4-ylamine] | 5.71 nM | 48.7 nM | 
